Assay results: article PMC9851200, “Multiparameter phenotypic screening for endogenous TFEB and TFE3 translocation identifies novel chemical series modulating lysosome function” (Autophagy, 2022)

Tests used:
Type in all cases: binding
[1] = target: T1, kinases (KINOMEscan panel) (Homo sapiens, UniProt Q6ZWH5); conditions: NEW KINOMEscan
T1 sequence (Q6ZWH5 1-1172): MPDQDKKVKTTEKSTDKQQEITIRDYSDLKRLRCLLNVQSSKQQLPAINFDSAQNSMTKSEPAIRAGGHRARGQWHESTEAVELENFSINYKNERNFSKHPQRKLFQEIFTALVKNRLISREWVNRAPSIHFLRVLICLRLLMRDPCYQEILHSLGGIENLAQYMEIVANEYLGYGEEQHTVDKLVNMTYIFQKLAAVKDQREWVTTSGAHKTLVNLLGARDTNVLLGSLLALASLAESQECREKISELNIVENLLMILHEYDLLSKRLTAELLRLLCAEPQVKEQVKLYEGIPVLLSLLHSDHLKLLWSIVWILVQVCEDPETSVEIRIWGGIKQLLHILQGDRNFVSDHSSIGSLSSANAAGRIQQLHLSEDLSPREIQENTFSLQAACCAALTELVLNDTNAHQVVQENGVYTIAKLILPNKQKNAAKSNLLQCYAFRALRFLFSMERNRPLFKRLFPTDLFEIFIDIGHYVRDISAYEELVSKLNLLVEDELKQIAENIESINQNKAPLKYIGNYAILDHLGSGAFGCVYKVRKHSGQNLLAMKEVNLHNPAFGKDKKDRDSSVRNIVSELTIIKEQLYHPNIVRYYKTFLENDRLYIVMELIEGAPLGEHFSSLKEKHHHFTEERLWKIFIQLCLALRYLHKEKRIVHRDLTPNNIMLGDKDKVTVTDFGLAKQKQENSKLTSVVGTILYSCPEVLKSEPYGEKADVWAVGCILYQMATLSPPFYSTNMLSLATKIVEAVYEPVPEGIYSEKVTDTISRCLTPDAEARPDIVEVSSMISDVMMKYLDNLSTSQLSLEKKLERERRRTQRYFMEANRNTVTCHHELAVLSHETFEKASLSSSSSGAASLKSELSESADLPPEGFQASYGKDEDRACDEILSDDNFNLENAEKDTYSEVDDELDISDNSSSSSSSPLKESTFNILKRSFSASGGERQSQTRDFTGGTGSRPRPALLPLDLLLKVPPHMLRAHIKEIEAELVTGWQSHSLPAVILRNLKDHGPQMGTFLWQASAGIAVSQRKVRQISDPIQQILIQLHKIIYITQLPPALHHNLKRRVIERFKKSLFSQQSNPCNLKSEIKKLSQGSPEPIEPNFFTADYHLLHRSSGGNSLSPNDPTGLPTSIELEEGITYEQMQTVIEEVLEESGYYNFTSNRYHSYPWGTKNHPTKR

[2] = target: T2, kinases (KINOMEscan panel) (Homo sapiens, UniProt P52333); conditions: kinase JAK3(JH1domain-catalytic); NEW KINOMEscan
T2 sequence (P52333 1-1124): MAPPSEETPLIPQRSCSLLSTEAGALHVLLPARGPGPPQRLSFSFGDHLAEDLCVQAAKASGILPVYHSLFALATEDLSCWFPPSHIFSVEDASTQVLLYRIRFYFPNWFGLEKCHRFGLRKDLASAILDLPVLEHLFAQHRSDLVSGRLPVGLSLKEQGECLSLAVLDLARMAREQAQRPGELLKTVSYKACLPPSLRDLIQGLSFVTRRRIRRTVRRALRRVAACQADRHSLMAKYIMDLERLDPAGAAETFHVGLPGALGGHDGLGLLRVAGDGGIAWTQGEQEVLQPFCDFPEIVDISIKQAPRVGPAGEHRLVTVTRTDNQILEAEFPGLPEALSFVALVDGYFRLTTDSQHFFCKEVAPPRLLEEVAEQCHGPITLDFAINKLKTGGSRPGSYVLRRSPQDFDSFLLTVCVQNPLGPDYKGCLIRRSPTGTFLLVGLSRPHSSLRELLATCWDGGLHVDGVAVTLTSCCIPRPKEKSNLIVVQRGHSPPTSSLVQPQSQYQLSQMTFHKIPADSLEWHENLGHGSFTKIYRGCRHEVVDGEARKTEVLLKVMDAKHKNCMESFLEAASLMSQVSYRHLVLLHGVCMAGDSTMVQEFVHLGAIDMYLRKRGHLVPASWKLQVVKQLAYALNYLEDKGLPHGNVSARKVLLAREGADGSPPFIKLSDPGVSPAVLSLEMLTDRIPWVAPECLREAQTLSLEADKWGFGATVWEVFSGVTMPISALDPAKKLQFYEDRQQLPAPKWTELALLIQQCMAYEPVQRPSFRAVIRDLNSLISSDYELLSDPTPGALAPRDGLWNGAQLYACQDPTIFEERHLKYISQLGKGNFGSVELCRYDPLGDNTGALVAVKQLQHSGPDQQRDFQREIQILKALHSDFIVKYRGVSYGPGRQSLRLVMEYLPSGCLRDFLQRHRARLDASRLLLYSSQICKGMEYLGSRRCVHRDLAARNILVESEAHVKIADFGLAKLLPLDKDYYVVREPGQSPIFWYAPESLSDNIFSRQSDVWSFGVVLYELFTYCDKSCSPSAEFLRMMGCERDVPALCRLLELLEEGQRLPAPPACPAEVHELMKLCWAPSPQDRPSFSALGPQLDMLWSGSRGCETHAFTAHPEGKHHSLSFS

[3] = target: T3, kinases (KINOMEscan panel) (Homo sapiens, UniProt Q9NRH2); conditions: kinase SNRK; NEW KINOMEscan
T3 sequence (Q9NRH2 1-765): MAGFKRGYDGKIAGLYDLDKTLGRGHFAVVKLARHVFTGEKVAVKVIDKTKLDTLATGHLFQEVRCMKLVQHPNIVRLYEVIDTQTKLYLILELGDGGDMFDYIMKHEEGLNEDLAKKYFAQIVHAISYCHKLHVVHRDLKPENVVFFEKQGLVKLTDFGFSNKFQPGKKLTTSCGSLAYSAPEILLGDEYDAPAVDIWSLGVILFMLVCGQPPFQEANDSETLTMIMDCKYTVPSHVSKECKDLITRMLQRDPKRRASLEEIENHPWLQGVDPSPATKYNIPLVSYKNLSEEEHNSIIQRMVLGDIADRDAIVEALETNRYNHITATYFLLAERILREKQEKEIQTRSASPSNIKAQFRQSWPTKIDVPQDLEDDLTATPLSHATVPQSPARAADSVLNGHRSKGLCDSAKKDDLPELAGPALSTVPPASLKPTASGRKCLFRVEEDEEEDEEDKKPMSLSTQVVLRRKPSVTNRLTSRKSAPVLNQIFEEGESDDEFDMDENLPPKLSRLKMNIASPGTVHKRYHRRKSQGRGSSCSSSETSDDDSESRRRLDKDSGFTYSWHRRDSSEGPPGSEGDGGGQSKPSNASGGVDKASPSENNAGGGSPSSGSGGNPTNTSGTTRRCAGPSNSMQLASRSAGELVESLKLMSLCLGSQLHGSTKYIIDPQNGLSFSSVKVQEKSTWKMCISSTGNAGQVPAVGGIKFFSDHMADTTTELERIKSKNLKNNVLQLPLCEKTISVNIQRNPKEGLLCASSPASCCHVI

| Compound | KINOMEscan NEK10 [1] | KINOMEscan JAK3(JH1domain-catalytic) [2] | KINOMEscan SNRK [3] |
| --- | --- | --- | --- |
| Cc1cccc(-c2nc(Nc3ccc4nn(C)cc4c3)c3ccccc3n2)n1 [NK167] | 11 | 0 | 6 |
| Cc1cccc(-c2nc(N(C)c3ccc4ncsc4c3)c3ccccc3n2)n1 [NK-161] | 17 | 0 | 7 |
